Data set [1] is described as follows: Water solubility of Curcumin. The format is physicochemical. Particulars: 95% pure Curcumin. On the procedure: The particle size of the Curcumin is about 125 micrometers and 95% of Curcumin can pass through 125 micrometers sieve and rest 5% is larger than 125 micrometers. In the final product, the Curcumin concentration is kept at a low concentration of 0.05% (wt/wt percentage for a batch). The concentration of Curcumin can go up to 0.15%. (wt/wt percentage for a batch) for particular milk beverage products. Thus, in an exemplary situation a 160 ml package of this milk beverage has approximately 80 mg of Curcumin and which can go up to 240 mg as required for ingestion.

Data set [2] can be described thus: pH of Curcumin dissolved in water. The format is physicochemical. On the procedure: The prior art as described in above paragraphs clearly points that Curcumin is unstable in an alkaline solution and loses its golden yellow colour above a pH of 7.5. When pure Curcumin (95%) is dissolved in water, it gives a pH of 6.1. Even at a concentration of 30% solution of Curcumin, prepared by 30 gms of Curcumin in 70 gm hot water, kept in water bath at 55 degrees Celsius for 10 minutes and cooled to 25 degrees Celsius, it has an acidic pH. This Acidic pH of Curcumin is not suitable for making flavoured milk products. Any ingredient having pH less than 6.4 adversely affect milk proteins. The present invention solves this problem by optimizing the exact pH of Curcumin infused milk beverage so that the properties of beverage are preserved and good dispersibility and stability of Curcumin is obtained in the final composition.

With `COc1cc(/C=C/C(=O)CC(=O)/C=C/c2ccc(O)c(OC)c2)ccc1O` [Curcumin, diferuloylmethane], the water solubility entry in data set [1] was “water insoluble”. Besides, the pH entry in data set [2] (30% solution: 30 gms Curcumin in 70 gm hot water, 55 degrees Celsius 10 minutes, cooled to 25 degrees Celsius) was “acidic pH”; in data set [2] (pure Curcumin (95%) dissolved in water) it was 6.1.

For the origin of these results see US10052293B2, “Curcumin infused milk beverage and a process for the preparation thereof” (priority 2016, dated 2018).
